Test results from PubChem BioAssay (NCI).
“And” between values parts separate entries of the source, which are not always exact repeats. Identical values can stand only once.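 Each compound was tested at five concentrations against cells in 96-well plates for 48 hours. GI50 is the concentration that inhibits growth by half. At the TGI there is no net growth.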

What was measured:
Assay in all cases: growth of human tumour cells (NCI), 48 h
HCC-2998 colon = system: HCC-2998 colon
SK-MEL-2 melanoma = system: SK-MEL-2 melanoma
HOP-92 NSCLC = system: HOP-92 NSCLC
OVCAR-5 ovarian = system: OVCAR-5 ovarian
A549 NSCLC = system: A549 NSCLC
TK-10 renal = system: TK-10 renal
SF-268 CNS = system: SF-268 CNS
786-0 renal = system: 786-0 renal
HT29 colon = system: HT29 colon
NCI-H522 lung = system: NCI-H522 lung

SMILES	GI50 (HCC-2998 colon) [µM]	TGI (HCC-2998 colon)	GI50 (SK-MEL-2 melanoma) [µM]	TGI (SK-MEL-2 melanoma) [µM]	GI50 (HOP-92 NSCLC) [µM]	TGI (HOP-92 NSCLC) [µM]	GI50 (OVCAR-5 ovarian) [µM]	TGI (OVCAR-5 ovarian) [µM]	GI50 (A549 NSCLC)	TGI (A549 NSCLC) [µM]	GI50 (TK-10 renal) [µM]	TGI (TK-10 renal) [µM]	GI50 (SF-268 CNS) [µM]	TGI (SF-268 CNS) [µM]	GI50 (786-0 renal) [µM]	TGI (786-0 renal) [µM]	GI50 (HT29 colon) [µM]	TGI (HT29 colon)	TGI (NCI-H522 lung) [µM]	GI50 (NCI-H522 lung) [µM]
COc1ccccc1-c1nccc(COc2ccccc2C[C@@H](Oc2ncnc3sc(-c4ccc(F)cc4)c(-c4ccc(OCCN5CCN(C)CC5)c(Cl)c4C)c23)C(=O)O)n1	1.31	2.78 µM	< 0.0114	0.0367	1.41	3.27	2.12	6.25	10 µM	31.7	3.46	14.9	3.69	17.5	2.01	4.2	2.65	7.09 µM		
COc1cc2c(c(OC)c1OC)-c1ccc(SC)c(=O)cc1[C@@H](NC(=O)c1ccc(F)cc1)CC2	< 0.01	0.0572 µM and < 0.01 µM				0.0958		> 100	0.0489 µM and < 0.01 µM	> 100	< 0.01	35.5	< 0.01	16.8	< 0.01	11.5	< 0.01	0.0891 µM and < 0.01 µM	< 0.01	
Cc1ccc(-c2cc(C(Cl)Cl)on2)cc1			> 100	> 100	33.5	> 100	> 100	> 100	65.6 µM	> 100	54.9	> 100	> 100	> 100	60.3	> 100	26.9	> 100 µM	> 100	48.5
CCCCCCCCCCCCCCCCCCNC(=O)[C@H]1CSC(c2ccc(F)c(OC)c2)N1 (stereo not given in full)	1.05	1.94 µM	0.887	1.67	1.66	4.61	1	1.91					0.908	1.84	1.01	1.91	1.03	2.12 µM		
N#CC1=C(N)NC(=S)C(C#N)C12Nc1ccccc1S2 (stereo not given)			29.3	58.1	60.8	> 100			23.1 µM	53.1	14.4	46.6	14.8	42.9	25.4	68.9	29.3	77.7 µM	35.6	16.2
CCCC/C=C1\CCC(CN2CCCC2)C1=O (stereo not given)		33.7 µM		29.8		31.1		33.4		40.3		6.3		29.9		3.62		31.5 µM		
O=C(O)C(O)c1ccc(F)cc1 (stereo not given)				> 100		> 100		> 100		> 100		> 100		> 100		> 100		> 100 µM	> 100	
CC(=O)Nc1ccc2c(c1)CN1C(=O)c3ccccc3C1=N2	> 100	> 100 µM			> 100	> 100	> 100	> 100	> 100 µM	> 100			> 100	> 100	> 100	> 100				
Cc1cc(S(N)(=O)=O)c(S/C(=N\NS(=O)(=O)c2ccccc2)c2ccc(Cl)c(Cl)c2)cc1Cl			> 100	> 100	93.4	> 100	52.4	> 100	32.2 µM	96.9	52	> 100	33.8	> 100	54.9	> 100			> 100	89
CC(=O)[O-].O=[N+]([O-])c1ccc([O-])c(C=NCCN=Cc2cc([N+](=O)[O-])ccc2[O-])c1.[Mn+3]	74.5	> 100 µM	> 100	> 100					> 100 µM	> 100	> 100	> 100	> 100	> 100	> 100	> 100	> 100	> 100 µM	93.3	31.4
c1cc2ccc1C1NCCCN1CCN1CCCNC1c1ccc(cc1)C1NCCCN1CCN1CCCNC21 (stereo not given)				> 100		> 100		> 100		> 100		> 100		> 100		> 100		> 100 µM	97.9	
C/C(=N\O)[C@H]1CC[C@@]2(C)[C@@H]3CC[C@H]4C(C)(C)/C(=N/O)CC[C@@]45CC35CC[C@]12C (stereo not given in full)			13.4	> 16.7	2.09	5.45			3.92 µM	9.59	8.17	> 16.7	4.16	14.1	2.97	6.85	5.56	> 16.7 µM	> 16.7	> 16.7
CC(C)(C)c1cc(C(=O)O)c(C(c2ccccc2)c2ccccc2C(=O)O)c(C(=O)O)c1 (stereo not given)				> 100				> 100		> 100		> 100		> 100		> 100		> 100 µM	5.16	
CC12O[Te]34OC1(C)C(C)(O3)C2(C)O4		14.1 µM		29.8				23.7		25.1		29.4		23.9		29.3		30.3 µM	23.6	
Nc1nc(Cl)cc(NCCCCCCNc2cc(Cl)nc(N)n2)n1		> 100 µM		> 100		> 100		> 100		> 100		> 100				> 100		> 100 µM	> 100	
C1=CC=C2NCCSCCNC3=CC=CC=CC3=NCCSCCN=C2C=C1		> 100 µM		> 100				> 100		> 100		> 100		> 100		> 100		> 100 µM	> 100	
CCOC(=O)c1cc(C(=O)O)c(=O)n2c1[nH]c1ccccc12		> 100 µM		> 100						> 100		> 100		> 100		> 100		> 100 µM	> 100	
O=C1OC(c2ccc(Cl)c3ccccc23)c2ccccc21 (stereo not given)		> 100 µM		> 100		> 100		> 100		> 100				> 100		> 100		> 100 µM	> 100	
